# Measured values as given in patent publication US20040077080A1, “Compositions and methods for induction of proteins involved in xenobiotic metabolism” (priority 2000, published 2004).
# Read-outs that look alike come from different tables or passages of the source.
# Columns and labels:
# [1] = tested on: AhR (dioxin response elements); test: DRE12-6 luciferase assay (HepG2 with dioxin response elements)
# Experimental: FIG. 25A: DRE12-6 cells were treated for 28 hours with the indicated concentrations of phytochemicals. FIG. 25B: DRE12-6 cells were treated with the indicated chemicals for 3 hours prior to co-treatment with 2,3,7,8-tetrachlorodibenzo-p-dioxin (TCDD) for 28 hours.
# Chemical treatment was followed by cell lysis and luciferase measurement.
# FIG. 26A: DRE12-6 cells were inoculated into a 96-well plate (2×10^4 cells per well) a day prior to treatment and treated for 28 hours with the indicated concentrations of the environmental contaminants (PAHs, PAH derivatives, PCBs, or pesticide derivatives). FIG. 26B: DRE12-6 cells were treated with the indicated chemicals for 3 hours prior to co-treatment with 2,3,7,8-tetrachlorodibenzo-p-dioxin (TCDD) for 28 hours.
# The luciferase-SV40 promoter vector, with the three copies of the dioxin response elements, was transfected into HepG2 cells, which were put under neomycin selection to yield the stable cell line DRE12-6, for detection of AhR-dependent transactivation.
# Luciferase assay: Luciferase assays using the LucLite system (Packard Instrument Co., Meriden, Conn.) were performed according to the manufacturer's instructions. Results were expressed as relative light units or fold induction, relative to DMSO-treated control cells. The data represent the mean±standard deviation of experiments performed in duplicate.
# MDR1 P-glycoprotein mRNA = test: Northern blot of MDR1 P-glycoprotein expression (Example VI)
# Text: FIG. 31 depicts MDR1 gene expression in LS174T cells as analyzed by Northern blot. […] Total RNA from the colon adenocarcinoma cell line LS174T was isolated and fractionated on a 1% formaldehyde gel and transferred onto a nylon membrane. The RNA blot was hybridized to ^32P-labeled MDR1 cDNA probe (top panel) or 18s rRNA probe for normalization of RNA loading on the gel (bottom panel).
# FIG. 32A: Lanes 1 and 2, primary human hepatocytes; lanes 3 and 4, LS174T cells. FIG. 32B: Lanes 1 and 2, HepG2 cells; lanes 3 and 4, HepG2 that overexpress PXR (Hepg-PXR cells). FIG. 32C: Lanes 1 and 2, Caco-2; lanes 3 and 4, Caco-2 cells that overexpress PXR (Caco-PXR cells).
# Total RNA from the colon adenocarcinoma cell line LS174T was isolated and fractionated on a 1% formaldehyde gel and transferred onto a nylon membrane. The RNA blot was hybridized to ^32-P-labeled MDR1 cDNA probe (top panels), ^32-P-labeled CYP3A4 cDNA probe (middle panels), or 18s rRNA probe for normalization of RNA loading on the gel (bottom panels).
# FIG. 37 depicts MDR1 gene regulation in response to chrysin as studied by Northern blot analysis. […] Total RNA from the hepatocytes was isolated and fractionated on a 1% formaldehyde gel and transferred onto a nylon membrane. The RNA blot was hybridized to ^32-P-labeled MDR1 cDNA probe (top panels), ^32P-labeled CYP3A4 cDNA probe (middle panels), or 18s rRNA probe for normalization of RNA loading on the gel (bottom panels).
# Northern Blot analysis for MDR1 P-glycoprotein and CYP3A4 expression: Total RNA was prepared from cells (primary hepatocytes, LS174T, HepG2, or Caco-2) using Trizol reagent (Invitrogen, Carlsbad, Calif.). For Northern blots, 15 micrograms of total RNA was fractionated on a 1% formaldehyde gel and transferred onto a nylon membrane by capillary transfer. A 530-base pair fragment of MDR1 cDNA was obtained from PCR cloning using the sense primer […] The resulting fragment was ^32P-labeled by random priming (Invitrogen, Carlsbad, Calif.) for use as an MDR1 probe. […] All constructs and cDNAs were subjected to sequence analysis. Hybridization was performed with the ExpressHyb system according to the manufacturer's instructions (Clontech, Palo Alto, Calif.).
# [2] = tested on: PXR / mdr1(dr4) response element; test: Hep-PXR/Pgp-Luc stable cell luciferase assay; details: 48 hours; for dose dependence of luciferase induction (in words): Hep-PXR/Pgp-Luc cells; for strength of luciferase induction (in words): Hep-PXR/PgpLuc cells, omeprazole 100 micromoles per liter versus rifampicin 10 micromoles per liter
# Experimental: (§1) FIG. 35 depicts dose-response behavior to various PXR activators in stable cell lines overexpressing PXR and harboring DR4 response element. FIG. 35A: Results are shown for the stable cell line Hep-PXR/PgpLuc. FIG. 35B: Results are shown for the stable cell line Caco-PXR/PgpLuc.
# (§2) Cells were exposed to the test compounds for 48 hours at the concentrations indicated.
# FIG. 36 depicts the effect of environmental and botanical chemicals on luciferase activity in the stable cell line Hep-PXR/PgpLuc. Cells were inoculated into 96-well plates at a density of 2×10^4 cells per well. After overnight recovery, cells were treated with the test compounds at the concentrations indicated for 48 hours.
# (§3) Establishment of stable transformants containing both PXR and reporter plasmid and development of high throughput bioassay for PXR-dependent transactivation: The stable transformants Hep-PXR/mdr1(dr4)-Luc and Caco-PXR/mdr1(dr4)-Luc cell lines were generated from the parental cell lines HepG-PXR and Caco-PXR, respectively, according to the following procedure. The parental cell lines HepG-PXR and Caco-PXR, which overexpress PXR, were stably transfected with the luciferase reporter plasmid mdr1(dr4)-Luc. The transfected cells were cultured in DMEM (HepG-PXR cells) or in IMEM (Caco-PXR cells), both media supplemented with 10% fetal bovine serum and neomycin (700 micrograms per milliliter).
# (§4) For the induction assay, stable transformants were seeded in 96-wells plates at a density of 1×10^4 cells per well and allowed to recover overnight. Plates were treated with test compounds at varying concentrations, using 3 replicates per dose. After 48 hours of exposure to the test compound, cells were washed with phosphate buffered saline, lysis buffer was applied to the wells, and luciferase substrate added. Following 10 minutes for light adaptation, luminescence was monitored according to the manufacturer's instructions (Packard kit, Biomed).
# [3] = tested on: PXR / mdr1(dr4) response element; test: Caco-PXR/Pgp-Luc stable cell luciferase assay; details: Caco-PXR/Pgp-Luc cells, 48 hours
# Experimental: as §1, §2, §3, §4
# CYP1A1 mRNA [4] = test: Northern blot of CYP1A1 mRNA in HepG2 cells
# Experimental: HepG2 cells were obtained from American Type Culture Collection (ATCC). Cells were grown in DMEM (Gibco/BRL). Twenty-four hours after cells were plated and grown to confluency, they were treated with one of the bioflavonoids, TCDD, or beta-naphthoflavone (Sigma). All inducers were dissolved in DMSO and this solvent was added to control cells at 0.1%.
# (§5) Total RNA from hepatocytes or HepG2 cells was isolated using Trizol™ reagent (Gibco BRL Products, Gaithersburg, Md.) and quantified by measuring absorbance at 260 nm; purity was assessed by determining the 260/280 nm ratio. […] A cDNA probe for human 18S RNA probe (Ambion, Austin Tex.) was used to normalize the amount of RNA loaded in each lane. […] Autoradiographs of Northern blots were quantified by densitometry using a Model GS-670 Imaging Densitometer equipped with Molecular Analysis/Mac version 1.1.1. Image Analysis software (BioRad laboratories, Hercules, Calif.) or by scaning autoradiograms with a ScanMaker II (Microtek) and digitized with Un-Scan-It software (Silk Scientific, Orem Utah). Exposure times used were in the linear range of the film, Kodak XAR-5.
# CYP1A1 mRNA [5] = test: Northern blot of CYP1A1 mRNA in primary cultures of human hepatocytes (Example II); details: hepatocytes
# Experimental: Six well plates containing human hepatocytes were obtained from the Liver Tissue Procurement and Distribution System (LTPADS, University of Minnesota, Minneapolis, Minn.). […] All inducers were dissolved in DMSO and added to media at a 0.1% final concentration of this reagent. After treatment, media was removed and cells harvested for RNA isolation.
# as §5
# [6] = tested on: PXR / CYP3A4 response elements; test: DPX2 (Hepg-hPXR/3A4-Luc) luciferase assay; details: DPX2 cells, 48 hours
# Experimental: Compounds tested included known PXR ligands and conventional drugs (FIG. 30A), environmental contaminants (FIG. 30B), and herbal supplements (FIG. 30C). DPX2 cells were cultured with DMEM supplemented with 10% fetal bovine serum and neomycin. Cells were inoculated into 96-well plate at a density of 1×10^4 cells per well the day before treatment.
# 2. […] In addition, a distal enhancer module, XREM, was amplified by PCR using the sense primer
# The resulting amplified XREM fragment was ligated upstream of PXRE containing a 3A4 promoter, into a luciferase vector.
# A neomycin resistance gene was generated by PCR amplification using the pcDNA3.1 plasmid (Invitrogen, Carlsbad, Calif.), which encodes a neomycin resistant gene, as a DNA template. The sense primer had the sequence […] Amplification was followed by SalI digestion of the PCR product, and the resulting fragment ligated to the SalI-digested PGL3-promoter plasmid, which contains luciferase as a reporter gene. […] The CYP3A4 cell line DPX2 (Hepg-hPXR/3A4-Luc) was established by double transfection with the PXR expression plasmid and the luciferase plasmid containing CYP3A4 PXR response element under selection with both neomycin and hygromycin.
# [7] = tested on: human CYP1A1 promoter (Ah receptor); test: 101L cell luciferase assay (HepG2 with human CYP1A1 promoter-luciferase), 96-well; details: 101L cells, 18 hours; 1 to 20 micromolar (resveratrol 10, apigenin 5, quercetin and curcumin 20 micromolar); GTE 0.1 milligrams/ml
# Experimental: Cells were initially seeded in flasks containing media without G418. After an overnight incubation the cultures were changed into media containing G418 for antibiotic selection. After three to five days, cells were removed from flasks by trypsinization and replated on either a twenty-four-well plate at a density of 3.5×10^5 cells per well, or a ninety-six-well plate at a density of 7.5×10^4 cells per well, in DMEM media that was replaced with that containing 0.1% FBS and without G418 or indicator (phenol red). The next day, media containing 0.1% FBS and G418 was added to the cultures. […] For the antagonist experiments, cells were co-treated with a flavonoid and two nanomolar TCDD. All inducers were dissolved in DMSO and this reagent was added to control cells at 0.1%. The cells were treated with varous doses and times (six to eighteen hours). After treatment, the media containing the compound was removed by aspiration and replaced with one-hundred microliters per well of DMEM for direct analysis of luciferase activity. Experiments were performed on 101L cells from frozen stocks on the initial derivation and the passage number was limited to thirty.
# Luciferase assays were performed as specified by the manufacturer (LucLite system, Packard Instrument, Meriden, Conn.). Activity was determined using a Packard LumiCount luminometer and results expressed as relative light units or fold increase above control (DMSO treated cells.
# [8] = DRE12-6 cells, test compound 3 hours prior to co-treatment with TCDD for 28 hours
compound,measurement,setting,value
"Clc1cc(-c2ccccc2)c(Cl)c(Cl)c1Cl [2,3,4,5 tetrachlorobiphenyl]",effect on TCDD-mediated luciferase induction (in words),[1]; [8],effectively inhibited
"CC#C[C@]1(O)CC[C@H]2[C@@H]3CCC4=CC(=O)CCC4=C3[C@@H](c3ccc(N(C)C)cc3)C[C@@]21C [RU486, mifepristone]",MDR1 expression in LS174T cells (in words),"MDR1 P-glycoprotein mRNA; LS174T cells, 48 hours",effectively induced
same,dose dependence of luciferase induction (in words),[2],dose-dependent luciferase induction
same,dose dependence of luciferase induction (in words),[3],dose-dependent luciferase induction
same,strength of luciferase induction (in words),[3],strongly induce
C[C@@]12CCC[C@H]1[C@@H]1CC[C@H]3C[C@@H](O)CC[C@]3(C)[C@H]1CC2 [androstanole],dose dependence of luciferase induction (in words),[2],dose-dependent luciferase induction
same,dose dependence of luciferase induction (in words),[3],dose-dependent luciferase induction
O=c1cc(-c2ccc(O)cc2)oc2cc(O)cc(O)c12 [apigenin],"HepG2 CYP1A1 mRNA (%), normalized to TCDD induction",CYP1A1 mRNA [4]; human,1%
same,"CYP1A1 mRNA level Subject B (%), normalized to TCDD induction","CYP1A1 mRNA [5]; human, 24 h",0%
same,"CYP1A1 mRNA level Subject C (%), normalized to benzanthracene induction","CYP1A1 mRNA [5]; human, 24 h",3%
same,"CYP1A1 mRNA level Subject D (%), normalized to TCDD induction","CYP1A1 mRNA [5]; human, 24 h",0%
same,effect on TCDD-mediated luciferase induction (in words),[1],effectively inhibited
O=c1cc(-c2ccccc2)oc2ccc3ccccc3c12 [beta-naphthoflavone],"HepG2 CYP1A1 mRNA (%), normalized to TCDD induction",CYP1A1 mRNA [4],50%
Clc1ccccc1C(c1ccccc1)(c1ccccc1)n1ccnc1 [clotrimazole],luciferase response curve (in words),[6],dose-dependent
COc1cc(/C=C/C(=O)CC(=O)/C=C/c2ccc(O)c(OC)c2)ccc1O [curcumin],induction of CYP1A1 mRNA in isolated hepatocytes (in words),CYP1A1 mRNA [5],did not elicit induction
C[C@@H]1C[C@H]2[C@@H]3CCC4=CC(=O)C=C[C@]4(C)[C@@]3(F)[C@@H](O)C[C@]2(C)[C@@]1(O)C(=O)CO [dexamethasone],dose dependence of luciferase induction (in words),[2],dose-dependent luciferase induction
same,strength of luciferase induction (in words),[2],Weaker luciferase induction
same,dose dependence of luciferase induction (in words),[3],dose-dependent luciferase induction
O=c1c(O)c(-c2ccc(O)cc2)oc2cc(O)cc(O)c12 [kaempferol],"CYP1A1 mRNA level Subject B (%), normalized to TCDD induction","CYP1A1 mRNA [5]; human, 24 h",0%
same,"CYP1A1 mRNA level Subject C (%), normalized to benzanthracene induction","CYP1A1 mRNA [5]; human, 24 h",10%
same,"CYP1A1 mRNA level Subject D (%), normalized to TCDD induction","CYP1A1 mRNA [5]; human, 24 h",0%
same,effect on TCDD-mediated luciferase induction (in words),[1],effectively inhibited
COc1ccc(C(c2ccc(OC)cc2)C(Cl)(Cl)Cl)cc1 [methoxychlor],luciferase response curve (in words),[6],dose-dependent
same,strength of luciferase induction (in words),[2],strongly induced
same,effect on TCDD-mediated luciferase induction (in words),[1]; [8],effectively inhibited
O=C1C[C@@H](c2ccc(O)cc2)Oc2cc(O)cc(O)c21 [naringenin],"HepG2 CYP1A1 mRNA (%), normalized to TCDD induction",CYP1A1 mRNA [4]; human,0%
same,"CYP1A1 mRNA level Subject D (%), normalized to TCDD induction","CYP1A1 mRNA [5]; human, 24 h",0%
O=c1c(O)c(-c2ccc(O)c(O)c2)oc2cc(O)cc(O)c12 [quercetin],induction of CYP1A1 mRNA in isolated hepatocytes (in words),CYP1A1 mRNA [5],did not elicit induction
same,effect on TCDD-mediated luciferase induction (in words),[1],effectively inhibited
Oc1ccc(C=Cc2cc(O)cc(O)c2)cc1 [resveratrol],"HepG2 CYP1A1 mRNA (%), normalized to TCDD induction",CYP1A1 mRNA [4]; human,12%
same,"CYP1A1 mRNA level Subject A (%), normalized to TCDD induction","CYP1A1 mRNA [5]; human, 24 h",5%
same,"CYP1A1 mRNA level Subject B (%), normalized to TCDD induction","CYP1A1 mRNA [5]; human, 24 h",0%
same,"CYP1A1 mRNA level Subject C (%), normalized to benzanthracene induction","CYP1A1 mRNA [5]; human, 24 h",12%
same,"CYP1A1 mRNA level Subject D (%), normalized to TCDD induction","CYP1A1 mRNA [5]; human, 24 h",0%
CO[C@H]1/C=C/O[C@@]2(C)Oc3c(C)c(O)c4c(O)c(c(/C=N/N5CCN(C)CC5)c(O)c4c3C2=O)NC(=O)/C(C)=C\C=C\[C@H](C)[C@H](O)[C@@H](C)[C@@H](O)[C@@H](C)[C@H](OC(C)=O)[C@@H]1C [rifampicin],MDR1 P-glycoprotein expression in Hep-PXR stable cells (in words),MDR1 P-glycoprotein mRNA; human,did not induce MDR1 P-glycoprotein expression further
(−)-epigallocatechin gallate [EGCG],fold induction of CYP1A1-promoter-mediated luciferase activity by flavonoids,[7],negligible effects
